# From publication PMC7558399, “In Vitro Selective Growth-Inhibitory Activities of Phytochemicals, Synthetic Phytochemical Analogs, and Antibiotics against Diarrheagenic/Probiotic Bacteria and Cancer/Normal Intestinal Cells” (Pharmaceuticals, 2020)
# Where two headings read alike, the source gives them in different places.
# Tests used:
# Assay type in all cases: cell-based
# [1] = tested on: Salmonella enterica ssp. enterica serovar Enteritidis (ATCC 13076); assay: Broth microdilution MIC, Salmonella Enteritidis
# [2] = tested on: Clostridium perfringens (DSMZ 11778); assay: microbe, parasite or virus in culture; conditions: DSMZ11778
# [3] = tested on: E. coli 0175:H7 (NCTC 12900); assay: microbe, parasite or virus in culture; conditions: Escherichia coli, NCTC12900
# [4] = tested on: Escherichia coli (ATCC 25922); assay: Broth microdilution MIC, E. coli
# [5] = tested on: S. enterica ssp. enterica serovar Typhimurium (ATCC 14028); assay: Broth microdilution MIC, Salmonella Typhimurium
# [6] = tested on: Bifidobacterium breve (ATCC 15700); assay: Broth microdilution MIC, B. breve
# [7] = tested on: diarrheagenic bacteria (12 strains); assay: microbe, parasite or virus in culture
# [8] = tested on: Bacillus cereus (ATCC 14579); assay: Broth microdilution MIC, B. cereus
# [9] = tested on: Enterococcus faecalis (ATCC 29212); assay: Broth microdilution MIC, E. faecalis
# [10] = tested on: Caco-2 (ATCC HTB 37) intestinal cancer cells; assay: MTT cytotoxicity assay, Caco-2; conditions: Homo sapiens; for IC50: read-out: IC50 ± SD; for IC80: read-out: IC80 ± SD (80% inhibitory concentration of proliferation)
# [11] = tested on: Vibrio parahaemolyticus (ATCC 17802); assay: Broth microdilution MIC, V. parahaemolyticus
# [12] = tested on: Bifidobacterium bifidum (ATCC 29521); assay: Broth microdilution MIC, B. bifidum
# [13] = tested on: Clostridium difficile (DSMZ 12056); assay: microbe, parasite or virus in culture; conditions: Clostridioides difficile, DSMZ12056
# [14] = tested on: Bifidobacterium animalis spp. lactis (DSMZ 10140); assay: Broth microdilution MIC, B. animalis spp. lactis; conditions: DSMZ10140
# [15] = tested on: Shigella flexneri (ATCC 12022); assay: microbe, parasite or virus in culture; conditions: ATCC12022
# [16] = tested on: Lactobacillus reuteri (CCM 3625); assay: Broth microdilution MIC, L. reuteri; conditions: Limosilactobacillus reuteri, CCM3625
# [17] = tested on: Bifidobacterium longum ssp. longum (DSMZ 20219); assay: Broth microdilution MIC, B. longum ssp. longum; conditions: DSMZ20219
# [18] = tested on: HT29 (ATCC HTB 38) intestinal cancer cells; assay: MTT cytotoxicity assay, HT29; conditions: Homo sapiens; for IC50: read-out: IC50 ± SD; for IC80: read-out: IC80 ± SD (80% inhibitory concentration of proliferation)
# [19] = tested on: Listeria monocytogenes (ATCC 7644); assay: Broth microdilution MIC, L. monocytogenes
# [20] = tested on: intestinal cancer cells (HT29 and Caco-2); assay: MTT cytotoxicity assay, mean for intestinal cancer cells; conditions: for IC50: read-out: x¯ -CC ± SD: mean IC50 for intestinal cancer cells; for IC80: read-out: x¯ -CC ± SD: mean IC80 for intestinal cancer cells
# [21] = tested on: Bacteroides fragilis (ATCC 25285); assay: Broth microdilution MIC, B. fragilis
# [22] = tested on: FHs 74 Int (ATCC CCL 241) intestinal normal cells; assay: MTT cytotoxicity assay, FHs 74 Int; conditions: 72 h; for IC50 / IC80: FHs74Int; for IC50: read-out: IC50 ± SD; for IC80: read-out: IC80 ± SD (80% inhibitory concentration of proliferation)
# [23] = tested on: probiotic bacteria (9 strains); assay: Broth microdilution MIC, probiotic bacteria as a group (mean or range over strains)
# [24] = tested on: Yersinia enterocolitica (ATCC 9610); assay: Broth microdilution MIC, Y. enterocolitica
# [25] = tested on: Bifidobacterium adolescentis (DSMZ 20087); assay: Broth microdilution MIC, B. adolescentis
# [26] = tested on: Lactobacillus casei (DSMZ 20011); assay: Broth microdilution MIC, L. casei; conditions: Lacticaseibacillus casei, DSMZ20011
# [27] = tested on: Lactobacillus rhamnosus (CCM 7091); assay: Broth microdilution MIC, L. rhamnosus; conditions: Lacticaseibacillus rhamnosus, CCM7091
# [28] = FHs 74 Int (intestinal normal cells), MTT
smiles,measurement,setting,value
"Oc1cccc2cccnc12 [8HQ, 8-hydroxyquinoline]",MIC,[1],256 µg/mL
same,MIC,[2],128 µg/mL
same,MIC,[3],256 µg/mL
same,MIC,[4]; ATCC25922,128 µg/mL
same,MIC,[5],512 µg/mL
same,MIC,[6]; ATCC15700,> 512 µg/mL
same,MIC,[7]; read-out: x¯ -DB ± SD: mean MIC for diarrheagenic bacteria,224 ± 181 µg/mL
same,MIC,[8]; ATCC14579,512 µg/mL
same,MIC,[9]; ATCC29212,4 µg/mL
same,IC50,"[10]; Caco-2, 72 h",0.3 ± 0.1 µg/mL
same,IC80,"[10]; Caco-2, 72 h",0.9 ± 0.1 µg/mL
same,MIC,[11]; ATCC17802,128 µg/mL
same,MIC,[12]; ATCC29521,512 µg/mL
same,MIC,[13],128 µg/mL
same,MIC,[14]; Bifidobacterium animalis,> 512 µg/mL
same,MIC,[15],128 µg/mL
same,MIC,[16],> 512 µg/mL
same,MIC,[17]; Bifidobacterium longum,512 µg/mL
same,IC50,"[18]; HT-29, 72 h",1.3 ± 0.3 µg/mL
same,IC80,"[18]; HT-29, 72 h",4.8 ± 2.8 µg/mL
same,MIC,[19]; ATCC7644,1 µg/mL
same,IC50,[20],0.8 ± 0.5 µg/mL
same,IC80,[20],2.9 ± 2 µg/mL
same,MIC,[21]; ATCC25285,32 µg/mL
same,IC50,[22],10.7 ± 0.2 µg/mL
same,IC80,[22],20.3 ± 2.4 µg/mL
same,MIC,[23]; read-out: x¯ -PB ± SD: mean MIC for probiotic bacteria,743 ± 343 µg/mL
same,MIC,[24]; ATCC9610,512 µg/mL
same,MIC,[25]; DSMZ20087,512 µg/mL
same,MIC,[26],> 512 µg/mL
same,MIC,[27],> 512 µg/mL
"O=C(N[C@H](CO)[C@H](O)c1ccc([N+](=O)[O-])cc1)C(Cl)Cl [CA, chloramphenicol]",MIC,"[1]; Salmonella Enteritidis, growth inhibited by ≥80%, read-out: MIC",4 µg/mL
same,MIC,[2],4 µg/mL
same,MIC,[3],8 µg/mL
same,MIC,"[4]; ATCC25922, growth inhibited by ≥80%, read-out: MIC",4 µg/mL
same,MIC,"[5]; Salmonella Typhimurium, growth inhibited by ≥80%, read-out: MIC",8 µg/mL
same,MIC,"[6]; ATCC15700, growth inhibited by ≥80%, read-out: MIC",4 µg/mL
same,MIC,"[7]; at least half of the diarrheagenic bacteria, read-out: MICs",1 to 4 µg/mL
same,MIC,"[7]; mean of 12 strains, >512 replaced with 1024, read-out: x¯ -DB ± SD: mean MIC for diarrheagenic bacteria",16.5 ± 34 µg/mL
same,MIC,"[8]; ATCC14579, growth inhibited by ≥80%, median/mode, read-out: MIC",8 µg/mL
same,MIC,"[9]; ATCC29212, growth inhibited by ≥80%, read-out: MIC",128 µg/mL
same,IC50,"[10]; Caco-2, MTT, 72 h",439.3 ± 4 µg/mL
same,IC80,"[10]; Caco-2, MTT, 72 h",> 512 µg/mL
same,MIC,"[11]; ATCC17802, growth inhibited by ≥80%, read-out: MIC",2 µg/mL
same,MIC,"[12]; ATCC29521, growth inhibited by ≥80%, read-out: MIC",4 µg/mL
same,MIC,"[13]; Clostridium difficile, […], read-out: MIC",4 µg/mL
same,MIC,"[14]; Bifidobacterium animalis spp. lactis, growth inhibited by ≥80%, read-out: MIC",4 µg/mL
same,MIC,[15],4 µg/mL
same,MIC,"[16]; Lactobacillus reuteri, growth inhibited by ≥80%, read-out: MIC",8 µg/mL
same,MIC,"[17]; Bifidobacterium longum ssp. longum, growth inhibited by ≥80%, read-out: MIC",4 µg/mL
same,IC50,"[18]; HT-29, HT29, MTT, 72 h",271.1 ± 1 µg/mL
same,IC80,"[18]; HT-29, HT29, MTT, 72 h",> 512 µg/mL
same,MIC,"[19]; ATCC7644, growth inhibited by ≥80%, read-out: MIC",8 µg/mL
same,IC50,"[20]; mean of HT29 and Caco-2, >512 replaced with 1024",355 ± 84 µg/mL
same,IC80,[20],> 512 µg/mL
same,MIC,"[21]; ATCC25285, growth inhibited by ≥80%, read-out: MIC",4 µg/mL
same,IC80 ± SD (80% inhibitory concentration of proliferation),[22]; [28],"- (Not active (MIC/IC50/80 > 512 μg/mL, the value 1024 μg/mL was used for average calculation))"
same,IC50,[22]; [28],30.7 ± 5.6 µg/mL
same,IC80,[22]; [28],> 512 µg/mL
same,MIC,"[23]; bifidobacteria, range over strains, read-out: MICs",2 to 4 µg/mL
same,MIC,"[23]; mean of 9 strains, >512 replaced with 1024, read-out: x¯ -PB ± SD: mean MIC for probiotic bacteria",6.2 ± 4 µg/mL
same,MIC,"[24]; ATCC9610, growth inhibited by ≥80%, read-out: MIC",16 µg/mL
same,MIC,"[25]; DSMZ20087, growth inhibited by ≥80%, read-out: MIC",4 µg/mL
same,MIC,"[26]; Lactobacillus casei, growth inhibited by ≥80%, read-out: MIC",16 µg/mL
same,MIC,"[27]; Lactobacillus rhamnosus, growth inhibited by ≥80%, read-out: MIC",8 µg/mL
